Target: T1, Amine oxidase [flavin-containing] B (Rattus norvegicus, UniProt P19643)
T1 sequence (P19643 whole entry): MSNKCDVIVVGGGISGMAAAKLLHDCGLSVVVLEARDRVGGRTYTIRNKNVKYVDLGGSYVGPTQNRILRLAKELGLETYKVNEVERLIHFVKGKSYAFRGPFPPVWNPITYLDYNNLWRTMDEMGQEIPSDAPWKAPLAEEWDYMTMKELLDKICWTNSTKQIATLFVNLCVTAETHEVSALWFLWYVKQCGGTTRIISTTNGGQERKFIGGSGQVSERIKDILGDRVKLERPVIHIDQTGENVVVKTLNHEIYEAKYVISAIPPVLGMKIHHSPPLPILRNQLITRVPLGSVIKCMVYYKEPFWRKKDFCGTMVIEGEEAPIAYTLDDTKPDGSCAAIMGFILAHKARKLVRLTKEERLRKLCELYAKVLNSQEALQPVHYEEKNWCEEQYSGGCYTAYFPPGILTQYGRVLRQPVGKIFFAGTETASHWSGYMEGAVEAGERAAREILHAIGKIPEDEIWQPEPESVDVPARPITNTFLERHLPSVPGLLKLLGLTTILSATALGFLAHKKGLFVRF
Experiment: Inhibition of Monoamine oxidase B of rat liver mitochondrial membranes
Type: cell membranes, Membrane
Conditions: not given; call rule not given here

Row | Compound | IC50
1 | C#CCN(C)C(C)CCCCO.Cl (configuration not stated) | 130 µM
2 | C#CCNC.Cl | Not Active
3 | C#CCN(C)C(CC)CC | 0.18 µM
4 | C#CCN(C)C(C)C.Cl | 19 µM
5 | C#CCN(C)C(C)CCC(=O)OCC.Cl (configuration not stated) | Not Active
6 | C#CCN(C)C(C)CCC.Cl.O=C(O)C(=O)O (configuration not stated) | 0.18 µM

Target: T2, Monoamine oxidase (Rattus norvegicus, UniProt P19643+P21396)
T2 sequence (P19643 whole entry): T1 sequence (P19643 whole entry)
T2 sequence (P21396 whole entry): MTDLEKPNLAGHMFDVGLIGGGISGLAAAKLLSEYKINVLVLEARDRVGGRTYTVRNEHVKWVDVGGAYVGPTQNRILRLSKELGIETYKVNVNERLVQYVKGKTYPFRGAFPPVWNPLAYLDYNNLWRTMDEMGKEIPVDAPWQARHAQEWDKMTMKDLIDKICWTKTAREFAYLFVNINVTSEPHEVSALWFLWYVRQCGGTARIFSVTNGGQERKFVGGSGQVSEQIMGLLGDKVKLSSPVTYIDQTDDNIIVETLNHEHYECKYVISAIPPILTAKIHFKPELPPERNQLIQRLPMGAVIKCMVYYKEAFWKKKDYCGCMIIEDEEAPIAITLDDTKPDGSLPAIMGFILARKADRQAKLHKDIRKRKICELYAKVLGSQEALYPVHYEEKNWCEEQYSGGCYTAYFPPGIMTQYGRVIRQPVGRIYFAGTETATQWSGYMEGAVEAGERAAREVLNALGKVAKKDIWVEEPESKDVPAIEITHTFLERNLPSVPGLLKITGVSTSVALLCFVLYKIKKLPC
Experiment: Compound was evaluated for the inhibition of deamination of dopamine (DA) by Monoamine oxidase at 5 x 10e-4 M
Type: protein assay
Conditions: not given

Row | Compound | IC50
7 | C#CCN(C)C(C)C.Cl | 28 µM

Target: T3, Amine oxidase [flavin-containing] A (Rattus norvegicus, UniProt P21396)
T3 sequence (P21396 whole entry): T2 sequence (P21396 whole entry)
Experiment: Inhibition of Monoamine oxidase A of rat liver mitochondrial membranes
Type: cell membranes, Membrane
Conditions: not given

Row | Compound | IC50
8 | C#CCN(C)C(C)CCCCO.Cl (configuration not stated) | Not Active
9 | C#CCNC.Cl | Not Active
10 | C#CCN(C)C(CC)CC | 2.4 µM
11 | C#CCN(C)C(C)C.Cl | Not Active
12 | C#CCN(C)C(C)CCC(=O)OCC.Cl (configuration not stated) | Not Active
13 | C#CCN(C)CCCCCCC.Cl | 38 µM
14 | C#CCN(C)C(C)CCC.Cl.O=C(O)C(=O)O (configuration not stated) | 12 µM

Tested on: Mus musculus
Experiment: MAO activities in the mouse brain after intraperitoneal administration of compound towards 5-HT (5 x 10e-4 M) substrate
Type: functional
Conditions: ip, read-out: ID50 (the source's name)

Row | Compound | ED50
15 | C#CCN(C)C(CC)CC | 52.9 µmol/kg
16 | C#CCN(C)CCCCCCC.Cl | > 491 µmol/kg
17 | C#CCN(C)C(C)CCC.Cl.O=C(O)C(=O)O (configuration not stated) | 114 µmol/kg
18 | C#CCN(C)C(C)CC (configuration not stated) | 69.7 µmol/kg
19 | C#CCN(C)[C@H](C)Cc1ccccc1 [SELEGILINE] | 143 µmol/kg

Tested on: Mus musculus
Experiment: MAO activities in the mouse brain after intraperitoneal administration of compound towards PE (1.9 x 10e-5 M) substrate
Type: functional
Conditions: ip, read-out: ID50 (the source's name)

Row | Compound | ED50
20 | C#CCN(C)C(CC)CC | 2.7 µmol/kg
21 | C#CCN(C)CCCCCCC.Cl | 75.6 µmol/kg
22 | C#CCN(C)C(C)CCC.Cl.O=C(O)C(=O)O (configuration not stated) | 1.7 µmol/kg
23 | C#CCN(C)C(C)CC (configuration not stated) | 4.2 µmol/kg
24 | C#CCN(C)[C@H](C)Cc1ccccc1 [SELEGILINE] | 2.3 µmol/kg

Tested on: Mus musculus
Experiment: Compound was evaluated for MAO-A activity after 21 days of chronic peritoneal administration in mouse fore brain at dose of 2 mg/kg
Type: functional
Conditions: not given

Row | Compound | Relative activity
25 | C#CCN(C)C(C)CCC.Cl.O=C(O)C(=O)O (configuration not stated) | 31%

Tested on: Mus musculus
Experiment: Compound was evaluated for MAO-B activity after 1 day of chronic peritoneal administration in mouse fore brain at dose of 0.25 mg/kg
Type: functional
Conditions: not given

Row | Compound | Relative activity
26 | C#CCN(C)C(C)CCC.Cl.O=C(O)C(=O)O (configuration not stated) | 94%

Tested on: Mus musculus
Experiment: Compound was evaluated for MAO-B activity after 1 days of chronic peritoneal administration in mouse fore brain at dose of 2 mg/kg
Type: functional
Conditions: not given

Row | Compound | Relative activity
27 | C#CCN(C)C(C)CCC.Cl.O=C(O)C(=O)O (configuration not stated) | 40%

Tested on: Mus musculus
Experiment: Compound was evaluated for MAO-B activity after 10 days of chronic peritoneal administration in mouse fore brain at dose of 2 mg/kg
Type: functional
Conditions: not given

Row | Compound | Relative activity
28 | C#CCN(C)C(C)CCC.Cl.O=C(O)C(=O)O (configuration not stated) | 19%

Tested on: Mus musculus
Experiment: Compound was evaluated for MAO-B activity after 21 days of chronic peritoneal administration in mouse fore brain at dose of 2 mg/kg
Type: functional
Conditions: not given

Row | Compound | Relative activity
29 | C#CCN(C)C(C)CCC.Cl.O=C(O)C(=O)O (configuration not stated) | 18%

Tested on: Mus musculus
Experiment: Compound was evaluated for MAO-A activity after 1 day of chronic peritoneal administration in mouse fore brain at dose of 0.25 mg/kg
Type: functional
Conditions: not given

Row | Compound | Relative activity
30 | C#CCN(C)C(C)CCC.Cl.O=C(O)C(=O)O (configuration not stated) | 102%

Tested on: Mus musculus
Experiment: Compound was evaluated for MAO-A activity after 10 days of chronic peritoneal administration in mouse fore brain at dose of 2 mg/kg
Type: functional
Conditions: not given

Row | Compound | Relative activity
31 | C#CCN(C)C(C)CCC.Cl.O=C(O)C(=O)O (configuration not stated) | 49%

Tested on: Mus musculus
Experiment: Compound was evaluated for MAO-A activity after 13 days of chronic peritoneal administration in mouse fore brain at dose of 0.25 mg/kg
Type: functional
Conditions: not given

Row | Compound | Relative activity
32 | C#CCN(C)C(C)CCC.Cl.O=C(O)C(=O)O (configuration not stated) | 89%

Tested on: Mus musculus
Experiment: MAO activities in the mouse brain after oral administration of compound towards 5-HT (5 x 10e-4 M) substrate
Type: functional
Conditions: not given

Row | Compound | Relative activity
33 | C#CCN(C)CCCCCCC.Cl | 123%
34 | C#CCN(C)C(C)CCC.Cl.O=C(O)C(=O)O (configuration not stated) | 89%

Tested on: Mus musculus
Experiment: MAO activities in the mouse brain after oral administration of compound towards PE (1.9 x 10e-5 M) substrate
Type: functional
Conditions: not given

Row | Compound | Relative activity
35 | C#CCN(C)CCCCCCC.Cl | 118%
36 | C#CCN(C)C(C)CCC.Cl.O=C(O)C(=O)O (configuration not stated) | 31%

Tested on: Rattus norvegicus
Experiment: MAO activity evaluated in dissected forebrain of rat after 2 hr of administration
Type: functional
Conditions: not given

Row | Compound | ED50
37 | C#CCN(C)C(C)CCC.Cl.O=C(O)C(=O)O (configuration not stated) | 5.2 µmol/kg
38 | C#CCN(C)C(C)CC (configuration not stated) | 31 µmol/kg
39 | C#CCN(C)[C@H](C)Cc1ccccc1 [SELEGILINE] | 26.3 µmol/kg

Target: T2, Monoamine oxidase
Type: protein assay
Conditions: not given

Row | Compound | IC50
40 | C#CCN(C)C(C)CCC.Cl.O=C(O)C(=O)O (configuration not stated) | 5.6 µM

Tested on: Mus musculus
Experiment: Compound was evaluated for MAO-B activity after 13 days of chronic peritoneal administration in mouse fore brain at dose of 0.25 mg/kg
Type: functional
Conditions: not given

Row | Compound | Relative activity
41 | C#CCN(C)C(C)CCC.Cl.O=C(O)C(=O)O (configuration not stated) | 35%

Tested on: Mus musculus
Experiment: Compound was evaluated for MAO-A activity after 1 days of chronic peritoneal administration in mouse fore brain at dose of 2 mg/kg
Type: functional
Conditions: not given

Row | Compound | Relative activity
42 | C#CCN(C)C(C)CCC.Cl.O=C(O)C(=O)O (configuration not stated) | 91%

From ChEMBL document CHEMBL1126309, “Aliphatic propargylamines: potent, selective, irreversible monoamine oxidase B inhibitors” (J Med Chem, 1992)
